Results reported in patent publication US12116358B2, “Substituted indoles and methods of use thereof” (EPIZYME, INC., priority 2018, dated 2024).
Read-outs that look alike come from different tables or passages of the source.

How the values were obtained:
H3K36me3 in A549 cells = assay: In-Cell Western (ICW) assay of SETD2 inhibitors (A549 assay); format: cell-based, human; details: A549 cells, read-out: SETD2 A549
Method in brief: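 H3K36me3 In-Cell Western: cells exposed to compound for 3 days at 4,000 cells/well, 37° C. DRAQ5 (1:1000) marked cell number, with 700/800-channel Licor read-out.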

SETD2(1434-1711) = target: T1, SETD2(1434-1711) (Homo sapiens, UniProt Q9BYW2); assay: SETD2 (1434-1711) assay; format: biochemical; details: read-out: SETD2 (1434-1711)
T1 construct: SETD2 (1434-1711) Assay; catalogue N/A
T1 sequence (Q9BYW2 1434-1711): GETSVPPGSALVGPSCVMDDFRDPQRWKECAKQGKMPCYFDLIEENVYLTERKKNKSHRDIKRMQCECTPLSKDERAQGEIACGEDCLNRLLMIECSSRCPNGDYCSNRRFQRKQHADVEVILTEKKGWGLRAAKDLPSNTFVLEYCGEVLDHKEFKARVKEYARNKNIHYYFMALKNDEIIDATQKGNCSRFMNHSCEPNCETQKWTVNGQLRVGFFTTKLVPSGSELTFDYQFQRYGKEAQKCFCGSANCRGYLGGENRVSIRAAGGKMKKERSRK

SMILES | IC50 (H3K36me3 in A549 cells) | IC50 (SETD2(1434-1711)) | IC50 (H3K36me3 in A549 cells; Homo sapiens)
Cc1ccc(F)c2cc(C(=O)Nc3cc(F)cc(C4CCN(C(=O)CN(C)C)C4)c3)[nH]c12 (stereo not drawn) [compound 140] |  | 10 nM | 300 nM
Cc1ccc(F)c2cc(C(=O)Nc3cc(N4CCN(C)CC4)ccn3)[nH]c12 [compound 612] |  | > 50000 nM | > 25000 nM
Cc1ccc(F)c2cc(C(=O)Nc3cc(F)cc(N4CCC(N(C)CCF)C4)c3)[nH]c12 (stereo not drawn) [compound 47] | 100 nM | 10 nM | 
CCOC(=O)N1CCC(N2CCC[C@H](NC(=O)c3cc4c(F)ccc(C)c4[nH]3)C2)CC1 [compound 876] |  | > 10000 nM | > 2000 nM
Cc1ccc(F)c2cc(C(=O)Nc3cccc(N4CCC5(CCCN5)CC4)c3)[nH]c12 [compound 86] | 200 nM | 5 nM | 
Cc1cc(-c2ncc[nH]2)cnc1C(NC(=O)c1cc2cccc(C)c2[nH]1)C1CC1 (stereo not drawn) [compound 445] |  | 1400 nM | 5200 nM
Cc1ccc(F)c2cc(C(=O)Nc3cccc(N4CCOCC4CN(C)C)c3)[nH]c12 (stereo not drawn) [compound 468] |  | 900 nM | 7500 nM
Cc1cccnc1C(NC(=O)c1cc2cncc(C)c2[nH]1)C1CC1 (stereo not drawn) [compound 608] | > 25000 nM | > 50000 nM | 
Cc1cccc2cc(C(=O)NC3CCC(NC(=O)Cc4cccnc4)CC3)[nH]c12 (stereo not drawn) [compound 605] | > 25000 nM | > 50000 nM | 
Cc1ccc(F)c2cc(C(=O)Nc3cccc(N4CCN(C5CC5)C(=O)C4)c3)[nH]c12 [compound 100] | 200 nM | 30 nM | 
Cc1cccnc1C(Cc1cnn(CC2CC2)c1)NC(=O)c1cc2cccc(C)c2[nH]1 (stereo not drawn) [compound 175] |  | 70 nM | 300 nM
Cc1ccc(F)c2cc(C(=O)Nc3cccc(N4CCN(C(C)C)C(=O)C4)c3)[nH]c12 [compound 201] | 400 nM | 90 nM | 
Cc1cccnc1C1(NC(=O)c2cc3cccc(C)c3[nH]2)CNC1 [compound 591] |  | > 50000 nM | > 25000 nM
Cc1ccc(F)c2cc(C(=O)Nc3cccc([C@@H]4CC[C@@H](N(C)C)C4)c3)[nH]c12 [compound 217] | 500 nM | 10 nM | 
Cc1ccc(F)c2cc(C(=O)Nc3cccc(N4CCN(C5CC5)c5ccccc54)c3)[nH]c12 [compound 555] | > 25000 nM | 9200 nM | 
Cc1ccc(F)c2cc(C(=O)Nc3cccc(-c4ncn[nH]4)c3)[nH]c12 [compound 304] | 1200 nM | 300 nM | 
Cc1ccc(F)c2cc(C(=O)Nc3nnc(C4CCN(C)CC4)s3)[nH]c12 [compound 519] | 19300 nM | 50000 nM | 
Cc1ccc(F)c2cc(C(=O)Nc3cccc(C45CCC(N(C)C)CC4C5)c3)[nH]c12 (stereo not drawn) [compound 251] | 600 nM | 10 nM | 
Cc1cccc2cc(C(=O)Nc3ccc4cncnc4c3)[nH]c12 [compound 466] | 7000 nM | 1900 nM | 
Cc1ccc(F)c2cc(C(=O)N[C@@H]3CCC[C@@H](N4CCC(N(C)C(=O)CN(C)C)C4)C3)[nH]c12 (stereo partly drawn) [compound 909] |  | 4700 nM | > 2000 nM
Cc1cccnc1C(NC(=O)c1cc2cccc(C)c2[nH]1)C1CCCC1 (stereo not drawn) [compound 563] |  | 10100 nM | > 25000 nM
Cc1ccc(F)c2cc(C(=O)N[C@@H]3CCC[C@H](c4cc(=O)[nH]cn4)C3)[nH]c12 [compound 1068] |  | 100 nM | 700 nM
CC(=O)N1CCCC(c2cccc(NC(=O)c3cc4c(F)ccc(C)c4[nH]3)c2)C1 (stereo not drawn) [compound 123] |  | 50 nM | 300 nM
COC(=O)CC(NC(=O)c1cc2cccc(C)c2[nH]1)c1ccc(C#N)cc1 (stereo not drawn) [compound 527] | 24200 nM | 14700 nM | 
Cc1ccc(F)c2cc(C(=O)Nc3cccc(CN4CCN(C)CC4)c3)[nH]c12 [compound 421] | 3600 nM | 400 nM | 
Cc1ccc(F)c2cc(C(=O)N[C@@H]3CCC[C@H](N4CCCN(C)C(=O)C4)C3)[nH]c12 [compound 887] |  | 100 nM | 300 nM

The next lines start with the values.

IC50 (H3K36me3 in A549 cells) | IC50 (SETD2(1434-1711)) | IC50 (H3K36me3 in A549 cells; Homo sapiens) | SMILES
3000 nM | 800 nM |  | Cc1ccc(F)c2cc(C(=O)Nc3cccc(N4C5CCC4C(=O)N(C)C5)c3)[nH]c12 (stereo not drawn) [compound 411]
 | 4300 nM | > 2000 nM | Cc1ccc(F)c2cc(C(=O)N[C@@H]3CCC[C@@H](N4CC5(CNC(=O)C5)C4)C3)[nH]c12 [compound 898]
 | 10 nM | 10 nM | CC(=O)N1CCN([C@H]2CCC[C@@H](NC(=O)c3cc4c(F)ccc(C)c4[nH]3)C2)CC1C (stereo partly drawn) [compound 906]
 | 4 nM | 10 nM | CC(=O)N1CCN([C@H]2CCC[C@@H](NC(=O)c3cc4c(F)ccc(C)c4[nH]3)C2)C[C@H]1C [compound 930]
 | 100 nM | 300 nM | Cc1ccc(F)c2cc(C(=O)Nc3cccc(-c4cnn(CCN5CCOCC5)c4)c3)[nH]c12 [compound 164]
> 2000 nM | 900 nM |  | CNC(=C[N+](=O)[O-])N1CCN(C2CCCC(NC(=O)c3cc4c(F)ccc(C)c4[nH]3)C2)CC1 (stereo not drawn) [compound 1169]
 | 16900 nM | > 25000 nM | Cc1cc(C(=O)N[C@H]2CC[C@@H]2N)cnc1C(NC(=O)c1cc2cccc(C)c2[nH]1)C1CC1 (stereo partly drawn) [compound 573]
40 nM | 6 nM |  | Cc1ccc(F)c2cc(C(=O)Nc3cc(F)cc(N4CCC(N5CCN(CC(N)=O)CC5)C4)c3)[nH]c12 (stereo not drawn) [compound 6]
20 nM | 10 nM |  | Cc1ccc(F)c2cc(C(=O)NC3CCCC(N4CCN5C(=O)COCC5C4)C3)[nH]c12 (stereo not drawn) [compound 1138]
 | 700 nM | 4700 nM | Cc1cc(CCN2CCN(C)CC2)cnc1C(NC(=O)c1cc2cccc(C)c2[nH]1)C1CC1 (stereo not drawn) [compound 435]
20600 nM | 10600 nM |  | Cc1cccc2cc(C(=O)NC3CCCCC3)[nH]c12 [compound 522]
> 2000 nM | 1000 nM |  | Cc1ccc(F)c2cc(C(=O)NC3CCCC(N4CCN5C(=O)NCC5C4)C3)[nH]c12 (stereo not drawn) [compound 1050]
> 25000 nM | > 200000 nM |  | Cc1cccc2cc(C(=O)Nc3cn4ccnc4cn3)[nH]c12 [compound 623]
200 nM | 20 nM |  | Cc1ccc(F)c2cc(C(=O)Nc3cccc(N4CC[C@H](N(C)C)C4)c3)[nH]c12 [compound 102]
 | 1400 nM | 7900 nM | Cc1ccc(N2CCN(C)CC2)cc1NC(=O)c1cc2cccc(C)c2[nH]1 [compound 469]
 | 20 nM | 700 nM | Cc1ccc(F)c2cc(C(=O)Nc3cccc([C@H]4CC[C@H](N(C)C)C4)c3)[nH]c12 [compound 264]
 | 1700 nM | > 2000 nM | Cc1ccc(F)c2cc(C(=O)N[C@@H]3CCC[C@@H](N4CCC5(CC4)CNC(=O)C5)C3)[nH]c12 [compound 929]

IC50 (H3K36me3 in A549 cells) | IC50 (SETD2(1434-1711)) | IC50 (H3K36me3 in A549 cells; Homo sapiens) | SMILES
 | 100 nM | 1100 nM | Cc1ccc(F)c2cc(C(=O)Nc3cccc(N4CCCCC4)c3)[nH]c12 [compound 297]
1800 nM | 80 nM |  | Cc1ccc(F)c2cc(C(=O)Nc3cccc(C4CCC(N(C)C)CC4)c3)[nH]c12 (stereo not drawn) [compound 343]
 | 9 nM | 200 nM | Cc1ccc(F)c2cc(C(=O)Nc3cc(F)cc(N4CCN(C(=O)CN(C)C)C(C)C4)c3)[nH]c12 (stereo not drawn) [compound 70]
18300 nM | 24900 nM |  | COc1ccc(C)c2[nH]c(C(=O)NC(CCC(=O)N3CCOCC3)c3ncccc3C)cc12 (stereo not drawn) [compound 514]
300 nM | 30 nM |  | CC(=O)N1CC2CN(C3CCCC(NC(=O)c4cc5c(F)ccc(C)c5[nH]4)C3)CC2C1 (stereo not drawn) [compound 1177]
 | 20 nM | 20 nM | Cc1ccc(F)c2cc(C(=O)N[C@@H]3CCC[C@H](N4CCN(C(=O)C(C)C)C(C(F)(F)F)C4)C3)[nH]c12 (stereo partly drawn) [compound 1112]
40 nM | 20 nM |  | Cc1ccc(F)c2cc(C(=O)N[C@@H]3CCC[C@H](N4CCN(C(=O)N5CCOCC5)CC4)C3)[nH]c12 [compound 828]
 | 1700 nM | > 25000 nM | Cc1ccc(F)c2cc(C(=O)NCCc3ccccc3N3CCN(C)CC3)[nH]c12 [compound 540]
 | 60 nM | 1800 nM | Cc1ccc(F)c2cc(C(=O)Nc3cc(C#N)cc(N4CCC(N(C)C)CC4)c3)[nH]c12 [compound 345]
> 25000 nM | 200 nM |  | Cc1ccc(F)c2cc(C(=O)Nc3cccc(-c4n[nH]c(=O)[nH]4)c3)[nH]c12 [compound 532]
18500 nM | 400 nM |  | Cc1cc(C(=O)NC2CCC(N)C2)cnc1C(NC(=O)c1cc2cccc(C)c2[nH]1)C1CC1 (stereo not drawn) [compound 516]
400 nM | 20 nM |  | Cc1ccc(F)c2cc(C(=O)Nc3cccc(N4CCC5(CCCN5C)CC4)c3)[nH]c12 [compound 212]
100 nM | 20 nM |  | Cc1ccc(F)c2cc(C(=O)Nc3cccc([C@@H]4CCN5C(=O)CC[C@@H]5C4)c3)[nH]c12 [compound 51]
18500 nM | 25100 nM |  | COc1cccc2cc(C(=O)NC(CCC(=O)N3CCOCC3)c3ncccc3C)[nH]c12 (stereo not drawn) [compound 515]
100 nM | 10 nM |  | Cc1ccc(F)c2cc(C(=O)Nc3cccc(N4C[C@H](O)[C@@H](N(C)C)C4)c3)[nH]c12 [compound 61]
200 nM | 40 nM |  | Cc1ccc(F)c2cc(C(=O)NC3CCCC(N4CCC(N5CCOC5=O)C4)C3)[nH]c12 (stereo not drawn) [compound 958]
 | 10 nM | 300 nM | Cc1ccc(F)c2cc(C(=O)Nc3cc(F)cc(N4C[C@H]5CCN(C)[C@H]5C4)c3)[nH]c12 [compound 122]
